Test results taken from patent US10870618B2, “Histone deacetylase inhibitors and uses thereof” (MUSC FOUNDATION FOR RESEARCH DEVELOPMENT, priority 2016, dated 2020).
Where “and” joins values, the source holds several entries; their conditions need not be identical. Identical values can stand only once. Entries after “also recorded” stand apart in the source; their conditions may differ.

Experiments:
[1] = tested on: AML cell lines; assay: AML / leukemia cell toxicity; assay type: cell-based
Protocol: MV4-11 cells were purchased from ATCC. The cells were grown according to ATCC protocol in Iscove's Modified Deulbecco's Medium with 10% Fetal Bovine Serum. Cells were grown in 37° C. environments with 5% CO2. Cells were plated at 20 k cells/well in 96-well clear U-bottom plates and pre-incubated for 24 hours. Addition of serially diluted inhibitor (in medium) was performed followed by 48 hours of additional incubation. Addition of CellTiter-Blue occurred to a final concentration of 0.125 mg/mL. The mixture was allowed to incubate until sufficient color changed occurred. Cell viability was measured as a function of resorfuin intensity using a Tecan M200 Pro spectrophotometer, 560 nm (ex.)/590 nm (em.). […] EC50's were determined using GraphPad Prism's built in “log(inhibitor) vs. normalized response—Variable slope” function.
Hek293 cells were purchased from ATCC. Cells were grown as described above. Cells were plated at 20 k cells/well in 96-well clear U-bottom plates and pre-incubated for 24 hours. […] Cell viability was measured as a function of resorufin intensity using a Tecan M200 Pro spectrophotometer, 560 nm (ex.)/590 nm (em.).
Human PBMCs were graciously donated from Dr. Nathan Dolloff s laboratory. […] Cell viability was measured as a function of resorufin intensity using a Tecan M200 Pro spectrophotometer, 560 nm (ex.)/590 nm (em.).

[2] = tested on: MV4-11 cells; assay: Pulse treatment of MV4-11 cells, cell death; assay type: cell-based; settings: 2 hr treatment (200 nM), removal of inhibitor, 24 hr incubation
[3] = ESI-LCMS glucuronidation assay; assay type: in vitro ADME, human; settings: 2,2,2-trifluoroacetate
Protocol: Mixed gender pooled Human Liver Microsomes (HLMs) were purchased from Xenotech, Lot#H0160. A buffer solution containing 100 mM Tris HCl buffered to a pH of 7.5 at 37° C. was used to dilute HLMs to a concentration of 250 μg/mL. To this solution was added 1 μg/mL (final) of alamethicin and 5 mM MgCl2 (final). This solution was rocked gently at 4° C. for 15 minutes to allow pore formation. 180 μL of this solution was added to 10 μL of 5 mM inhibitor+10 μL of 50 mM UDPGA in H2O or just 10 μL H2O. This solution was gently rocked at 37° C. for 12 hours before being quenched with a 47:50:3 (v/v/v) solution of water, acetonitrile and formic acid. After a 15 minute centrifugation at 15000G in 37° C. conditions, 20 μL of supernatant was directly injected into Thermo LTQ Fleet LCMS.
An Accucore RP-MS HPLC Column, 2.6 […], 30×4.6 mm was used throughout these assays. Water and methanol with 0.1% (v/v) formic acid were used as mobile phase. A gradient of 10% methanol 90% water was run isocratically for 2 minutes at […]. The gradient then changed to 100% methanol over 10 minutes before returning to 10% methanol 90% water over the next three minutes. Capillary temperature was 350° C., with a spray voltage of 5 kV.

[4] = tested on: MV4-11 cells; assay: Western blot analysis of MV4-11 cells; assay type: cell-based
Protocol: MV4-11 cells were cultured as described above. Cells were plated at 500 k cells/mL×3 mLs in clear, flat bottom 6 well plates. Cells were pre-incubated for 24 hours before addition of inhibitor at various concentrations. […] Cell pellets were lysed with RIPA buffer. RIPA buffer is comprised of 50 mM Tris Base, 150 mM NaCl, 5 mM EDTA, 0.1% (v/v) SDS, 0.5% (v/v) Sodium Deoxycholate, and 1% (v/v) Triton-x-100. After lysing, the suspension is ultra-sonicated and centrifuged at 15000 RPM for 15 minute at 4° C. 80 μL of supernatant was mixed with 40 μL of 15:85 (v/v) 3-mercaptoethanol:LDS solution. The mixture was heated at 90° C. for 15 minutes and stored for loading at −20° C. Prior to loading, the solution was flash thawed at 90° C. Lysates were run on Invitrogen NuPAGE 4-12% Bis-Tris 15 well gels at 170V for approximately 60 minutes in MES buffer. Gels were transferred to […] and ran at 30V for 180 minutes. Primary antibodies, purchased from Santa Cruz Biotechnology, were added in 5% (w/v) milk or 5% (w/v) Bovine Serum Albumin fraction V. The antibody was incubated with cellulose overnight at 4° C. before addition of secondary antibody in 5% (w/v) milk or 5% (w/v) Bovine Serum Albumin. Images were read using a GE ImageQuant LAS 4000. Global lighting adjustments of resulting images were made using Adobe Photoshop CC. Quantification was performed using Image Studio Lite 4.0.

[5] = tested on: melanoma and renal cancer; assay: Cell line efficacy, melanoma and renal cancer growth; assay type: cell-based; settings: melanoma and renal cancer cell lines
Text: Percent growth below zero indicates the treatment has selective lethality to the cancer cells.

[6] = In vivo PK, plasma concentration via LC-MS/MS; set-up: species or system mice
Protocol: The PK parameters were analyzed. The area under the plasma concentration versus time curve (AUC) is calculated using the linear trapezoidal method. The PK data were fitted to obtain PK parameters using the non-compartmental method.
LP-411 in vivo PK. a. Semi-log PK profiles for […] at 20 mg/kg (n=3) determined through a 24 hr period. b.

[7] = Stability in artificial gastric and intestinal juice and human serum; assay type: in vitro ADME; settings: over 8 hours
[8] = tested on: class I HDACs; assay: Class I HDAC inhibition (FIG. 7a); assay type: biochemical
Protocol: All Treatments are at 100 nM inhibitor concentration.

[9] = tested on: Raw246.7 macrophage cells; assay: NO production in activated macrophages; assay type: cell-based; settings: 100 nM, LPS and LPS+ATP
Text: Hypo-acetylation of histone H3 and H4 were also reversed with HDAC inhibitor treatments (yellow dash box). d.

**Q.** For `CCCNNC(=O)/C=C/c1ccc(CNCCc2c(C)[nH]c3ccccc23)cc1` [LP-97, (E)-2-(2-methyl-1H-indol-3-yl)-N-(4-(3-oxo-3-(2-propylhydrazinyl)prop-1-en-1-yl)benzyl)ethan-1-aminium 2,2,2-trifluoroacetate], which “toxicity against wt-p53 versus p53-null and mutants” value ([1]; n=3) is on record?
**A.** The value was “selective toxicity”.

**Q.** And the “effective concentration against multiple AML cell lines” value ([1]; wild-type p53 leukemia cell lines)?
**A.** The value was under 100 nM.

**Q.** And the “cell death after pulse treatment” value [2]?
**A.** Its value is “significant AML cell death”.

**Q.** What about the “glucuronidation by human liver microsomes” value [3] of the same molecule?
**A.** Its value is “resistance to glucuronidation; also recorded: resistant to glucuronidation”.

**Q.** What about the “p53 level after pulse treatment” value ([4]; 2 hr treatment (200 nM), removal of inhibitor, 24 hr incubation) of the same molecule?
**A.** Its value is “significant reduction”.

**Q.** And the “effect on oncogenic proteins FLT3 and STAT5” value ([4]; AML FLT3-ITD mutant cell line MV4-11)?
**A.** The value was “degradation”.

**Q.** What about the growth inhibition concentration [5] of the same molecule?
**A.** The growth inhibition concentration was “below 100 nM”.

**Q.** And the “total growth inhibition concentration” value [5]?
**A.** The value was 1 µM.

**Q.** And the “Cmax relative to panobinostat” value ([6]; 20 mg/Kg I.P.)?
**A.** Its value is “about 5 times”.

**Q.** What about the t1/2 ([6]; in vivo, 20 mg/kg, plasma) of the same molecule?
**A.** The t1/2 was 6.07 h.

**Q.** What about the half-life ([6]; mouse, intraperitoneal, in vivo, 20 mg/kg, plasma) of the same molecule?
**A.** Its half-life is 6.07 h.

**Q.** And the Cmax ([6]; mouse, plasma, ip, 20 mg/kg I.P.)?
**A.** Its Cmax is 559 ng/mL and 1.5 µM.

**Q.** And the “degradation in artificial gastric and intestinal juice and human serum” value [7]?
**A.** Its value is “no appreciable degradation”.

**Q.** What about the “HDAC inhibitor potency, class I HDACs” value [8] of the same molecule?
**A.** The value was “low-nanoM to picoM”.

**Q.** What about the “NO production, acute treatment” value [9] of the same molecule?
**A.** Its value is “only inhibited LPS induced NO production but not ATP driven ones”.
